According to US20070259907A1, “ARYL AND ARYLALKYLENYL SUBSTITUTED THIAZOLOQUINOLINES AND THIAZOLONAPHTHYRIDINES” (priority 2004, published 2007):

SMILES	melting point [°C]
CCCc1nc2c(N)nc3cc(-c4cccc(CO)c4)ccc3c2s1 [Example 1, [3-(4-Amino-2-propylthiazolo[4,5-c]quinolin-7-yl)phenyl]methanol]	186 to 188
CCCc1nc2c(N)nc3cc(-c4cccc(NS(C)(=O)=O)c4)ccc3c2s1 [Example 2, N-[3-(4-Amino-2-propylthiazolo[4,5-c]quinolin-7-yl)phenyl]methanesulfonamide]	228 to 231
CCCc1nc2c(N)nc3cc(-c4ccccc4CO)ccc3c2s1 [Example 3, [2-(4-Amino-2-propylthiazolo[4,5-c]quinolin-7-yl)phenyl]methanol]	216 to 219
CCCc1nc2c(N)nc3cc(-c4cccc(C(=O)N5CCOCC5)c4)ccc3c2s1 [Example 4, 7-[3-(Morpholin-4-ylcarbonyl)phenyl]-2-propylthiazolo[4,5-c]quinolin-4-amine]	190 to 193
CCCc1nc2c(N)nc3cc(-c4cccc(C(=O)N(CC)CC)c4)ccc3c2s1 [Example 42, 3-(4-Amino-2-propylthiazolo[4,5-c]quinolin-7-yl)-N,N-diethylbenzamide]	169 to 172
CCCc1nc2c(N)nc3cc(-c4cccc(C(=O)N5CCCC5)c4)ccc3c2s1 [Example 43, 2-Propyl-7-[3-(pyrrolidin-1-ylcarbonyl)phenyl]thiazolo[4,5-c]quinolin-4-amine]	177 to 180
CCCc1nc2c(N)nc3cc(-c4ccc(NC(C)=O)cc4)ccc3c2s1 [Example 44, N-[4-(4-Amino-2-propylthiazolo[4,5-c]quinolin-7-yl)phenyl]acetamide]	252 to 255
CCCc1nc2c(N)nc3cc(-c4cccc(C(=O)NC5CC5)c4)ccc3c2s1 [Example 45, 3-(4-Amino-2-propylthiazolo[4,5-c]quinolin-7-yl)-N-cyclopropylbenzamide]	251 to 254
CCCc1nc2c(N)nc3cc(-c4ccccc4NC(C)=O)ccc3c2s1 [Example 46, N-[2-(4-Amino-2-propylthiazolo[4,5-c]quinolin-7-yl)phenyl]acetamide]	206 to 209
CCCc1nc2c(N)nc3cc(-c4ccccc4C(N)=O)ccc3c2s1 [Example 47, 2-(4-Amino-2-propylthiazolo[4,5-c]quinolin-7-yl)benzamide]	274 to 276
CCCc1nc2c(N)nc3cc(-c4cccc(S(C)(=O)=O)c4)ccc3c2s1 [Example 48, 7-[3-(Methylsulfonyl)phenyl]-2-propylthiazolo[4,5-c]quinolin-4-amine]	242 to 245
CCCc1nc2c(N)nc3cc(-c4cccc(NC(C)=O)c4)ccc3c2s1 [Example 49, N-[3-(4-Amino-2-propylthiazolo[4,5-c]quinolin-7-yl)phenyl]acetamide]	173 to 176
CCCc1nc2c(N)nc3cc(-c4cccc(CN)c4)ccc3c2s1 [Example 50, 7-(3-Aminomethylphenyl)-2-propylthiazolo[4,5-c]quinolin-4-amine]	168 to 171
CCCc1nc2c(N)nc3cc(-c4ccc(F)cc4CN)ccc3c2s1 [Example 51, 7-[2-(Aminomethyl)-4-fluorophenyl)-2-propylthiazolo[4,5-c]quinolin-4-amine]	181 to 184
CCCc1nc2c(N)nc3ccc(-c4cccc(S(C)(=O)=O)c4)cc3c2s1 [Example 134, 8-[3-(Methylsulfonyl)phenyl]-2-propylthiazolo[4,5-c]quinolin-4-amine]	252 to 255
CCCc1nc2c(N)nc3ccc(-c4cccc(NC(C)=O)c4)cc3c2s1 [Example 135, N-[3-(4-Amino-2-propylthiazolo[4,5-c]quinolin-8-yl)phenyl]acetamide]	242 to 245
CCCc1nc2c(N)nc3ccc(-c4ccc(F)cc4CN)cc3c2s1 [Example 136, 8-[2-(Aminomethyl)-4-fluorophenyl]-2-propylthiazolo[4,5-c]quinolin-4-amine]	198 to 201
CCCc1nc2c(N)nc3ccc(-c4ccc(NC(C)=O)cc4)cc3c2s1 [Example 137, N-[4-(4-Amino-2-propylthiazolo[4,5-c]quinolin-8-yl)phenyl]acetamide]	251 to 254
CCCc1nc2c(N)nc3ccc(-c4cccc(NS(C)(=O)=O)c4)cc3c2s1 [Example 138, N-[3-(4-Amino-2-propylthiazolo[4,5-c]quinolin-8-yl)phenyl]methanesulfonamide]	244 to 246
CCCc1nc2c(N)nc3ccc(-c4ccccc4CO)cc3c2s1 [Example 139, [2-(4-Amino-2-propylthiazolo[4,5-c]quinolin-8-yl)phenyl]methanol]	194 to 196
CCCc1nc2c(N)nc3ccc(-c4cccc(CO)c4)cc3c2s1 [Example 140, [3-(4-Amino-2-propylthiazolo[4,5-c]quinolin-8-yl)phenyl]methanol]	176 to 177
CCCc1nc2c(N)nc3ccc(-c4ccc(CO)cc4)cc3c2s1 [Example 141, [4-(4-Amino-2-propylthiazolo[4,5-c]quinolin-8-yl)phenyl]methanol]	212 to 214
CCCc1nc2c(N)nc3ccc(-c4cccc(CN)c4)cc3c2s1 [Example 142, 8-[3-(Aminomethyl)phenyl]-2-propylthiazolo[4,5-c]quinolin-4-amine]	189 to 191
CCCc1nc2c(N)nc3ccc(-c4ccc(CN)cc4)cc3c2s1 [Example 143, 8-[4-(Aminomethyl)phenyl]-2-propylthiazolo[4,5-c]quinolin-4-amine]	225 to 226
